Here are results for 3 compounds from patent publication US20070264679A1, “Method for analyzing the activity of lipoxygenase using a water-soluble substrate” (Chungnam National University Industry Collaboration …, priority 2006, published 2007).

Experiment [1] concerns the target T1, LOX-1 (soybean lipoxygenase) (Glycine max, UniProt P08170).
T1 construct: purchased Sigma-Aldrich Corp (St. Louis, Mo., USA) lipoxidase Type I-B
T1 sequence (P08170 1-839): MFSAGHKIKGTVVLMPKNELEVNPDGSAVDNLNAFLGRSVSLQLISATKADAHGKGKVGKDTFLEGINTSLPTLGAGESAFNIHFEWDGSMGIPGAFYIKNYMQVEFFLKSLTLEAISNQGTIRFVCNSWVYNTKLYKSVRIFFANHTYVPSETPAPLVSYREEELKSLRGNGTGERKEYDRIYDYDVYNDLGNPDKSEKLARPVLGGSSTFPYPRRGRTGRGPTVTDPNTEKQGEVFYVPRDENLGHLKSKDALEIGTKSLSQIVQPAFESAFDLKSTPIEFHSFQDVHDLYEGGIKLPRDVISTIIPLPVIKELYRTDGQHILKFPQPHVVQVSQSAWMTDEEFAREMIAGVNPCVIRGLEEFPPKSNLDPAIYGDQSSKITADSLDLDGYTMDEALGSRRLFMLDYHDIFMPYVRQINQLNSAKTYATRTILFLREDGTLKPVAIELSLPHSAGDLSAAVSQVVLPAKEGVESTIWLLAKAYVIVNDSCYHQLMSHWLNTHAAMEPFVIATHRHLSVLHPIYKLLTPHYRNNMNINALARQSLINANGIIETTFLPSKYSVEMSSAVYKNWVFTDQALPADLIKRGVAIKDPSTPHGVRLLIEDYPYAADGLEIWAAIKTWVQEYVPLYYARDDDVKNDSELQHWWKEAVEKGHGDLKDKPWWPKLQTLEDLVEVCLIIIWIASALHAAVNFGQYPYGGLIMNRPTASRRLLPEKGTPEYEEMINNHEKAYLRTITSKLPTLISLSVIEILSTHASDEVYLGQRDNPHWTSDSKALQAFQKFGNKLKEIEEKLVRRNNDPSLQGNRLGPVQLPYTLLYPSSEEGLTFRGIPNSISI
The experiment is described as follows: pH-dependent oxygenation by LOX, initial velocity of absorbance at 234 nm. Format: biochemical. To be noted: substrate 100 μM; for LOX activity on various pH conditions: 30 sec, 25° C. The protocol: FIG. 7 is an absorbance-pH graph showing the effect of pH on the rate of LOX-1-catalyzed oxygenation of linoleoyl-lysoPC where LOX-1 (0.02 units/ml) was incubated with 100 μM of linoleoyl-lysoPC (▪), 100 μM of sodium linoleate (●) or 250 μM of soybean LPC (▴) in buffers of various pHs; 200 mM phosphate (pH 6-8), 50 mM borax (pH 8.5-9.5) and 300 mM sodium bicarbonate (pH 10-11).
LOX-1 (0.02 units/ml) was incubated with linoleoyl-lysoPC (100 μM) in 500 μl of buffers of various pHs (pH 6.0-11) at 25° C. as described before (Began et al, Biochemistry 38 (1999) 13920-13927); 200 mM phosphate (pH 6-8), 50 mM borax (pH 8.5-9.5), 300 mM sodium bicarbonate (pH 10-11). Separately, the oxygenation was started by including LOX-1 (0.02 units/ml) in the reaction mixture containing sodium linoleate (100 μM) in the presence of Tween 20 (25 μM). […]
LO (840 units/ml Sigma, Saint Louis, Mo., USA) was incubated with 1-linoleoyl-lysophosphatidylcholine (100 μM) in 0.5 ml of buffers of various pHs (pH 6.0-11) as shown in Table 4 for 30 sec at 25° C.

Experiment [2] has as its target T2, Leukocyte 12-lipoxygenase (leukocyte LOX) (Sus scrofa, UniProt P16469).
T2 construct: purchased Cayman Chemical Co. (Ann Arbor, Mich., USA)
T2 sequence (P16469 1-663): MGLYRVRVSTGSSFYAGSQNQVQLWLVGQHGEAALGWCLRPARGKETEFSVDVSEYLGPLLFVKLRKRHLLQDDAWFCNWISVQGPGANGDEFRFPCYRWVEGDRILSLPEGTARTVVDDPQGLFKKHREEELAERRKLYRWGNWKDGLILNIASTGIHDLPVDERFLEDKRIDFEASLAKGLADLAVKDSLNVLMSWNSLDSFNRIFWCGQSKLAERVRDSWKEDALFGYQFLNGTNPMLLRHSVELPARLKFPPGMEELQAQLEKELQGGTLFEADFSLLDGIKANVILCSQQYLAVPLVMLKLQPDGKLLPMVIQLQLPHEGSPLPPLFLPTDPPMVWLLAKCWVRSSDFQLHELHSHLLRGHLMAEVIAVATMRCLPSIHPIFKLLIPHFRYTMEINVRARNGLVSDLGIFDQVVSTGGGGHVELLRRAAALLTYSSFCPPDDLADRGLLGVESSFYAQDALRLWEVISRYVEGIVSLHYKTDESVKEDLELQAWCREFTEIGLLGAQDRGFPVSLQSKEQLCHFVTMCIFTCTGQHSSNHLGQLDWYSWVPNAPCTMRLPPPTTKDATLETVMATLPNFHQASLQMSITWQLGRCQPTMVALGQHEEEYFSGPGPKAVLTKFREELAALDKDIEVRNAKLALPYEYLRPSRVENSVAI
The experiment is described as follows: Kinetics of oxygenation of arachidonic acid or arachidonoyl-lysophospholipids by leukocyte LOX. The class given is biochemical, porcine. As to conditions: for Vm: 0.03% Tween 20. The procedure:
Activities of various LOXs were monitored by measuring the increase in absorbance at 234 nm due to the formation of hydroperoxide (ε234=25,000 M^−1 cm^−1) at 25° C. as described before (Smith et al, J. Biol. Chem. 247 (1972) 1038-1047). One unit is defined as the amount of LOXs that can produce one nanomole of conjugated diene per min. The reaction mixture (500 μl) included reticulocyte LOX (2 units/ml) in 50 mM phosphate buffer (pH 7.4), porcine leukocyte LOX (1 unit/ml) in 100 mM phosphate buffer (pH 7.5) containing 5 mM EDTA and 0.03% Tween 20, or soybean LOX-1 (2.5 units/ml) in 50 mM borax buffer (pH 9.0) at 25° C. The reactions were started by including each substrate (100 μM) into the above reaction mixture.
Reticulocyte LOX (2 units/ml), leukocyte LOX (1 units/ml) or soybean LOX-1 (2.5 units/ml) was incubated with each arachidonoyl derivative substrate of various concentrations as described above. The values of kinetic parameters were obtained according to Lineweaver Burke plot analyses as described before (Barroso et al, J. Chromatogr. B. Analyt. Technol. Biomed. Life. Sci. 814 (2005) 21-28).

Regarding `CCCCC/C=C\C/C=C\CCCCCCCC(=O)O` [Linoleic acid, linoleic acid], the “LOX activity on various pH conditions” value in experiment [1] (pH 6.5), in experiment [1] (pH 7), in experiment [1] (pH 7.5), in experiment [1] (pH 8), in experiment [1] (pH 8.5) and in experiment [1] (pH 9) was “◯” each time. Moreover, the “LOX activity on various pH conditions” value in experiment [1] (pH 9.5), in experiment [1] (pH 10), in experiment [1] (pH 10.5) and in experiment [1] (pH 11) was “◯” each time.

In general, Km refers to the substrate concentration at which the rate is half of its maximum. On to `CCCCC/C=C\C/C=C\C/C=C\C/C=C\CCCC(=O)OCC(O)COP(=O)([O-])OCC[N+](C)(C)C` (centres unmarked) [Arachidonoyl-lysoPC, 1-Arachidonoyl lysophosphatidylcholine], for which the “efficacy as a substrate for leukocyte LOX (Vm/Km) relative to arachidonic acid” value in experiment [2] (greater than that of arachidonic acid) was “approximately 10 fold”. For the same compound, the Vm came out at 199.8 ± 16.7 units/mg in experiment [2] (leukocyte LOX 1 unit/ml, 100 mM phosphate buffer pH 7.5, 5 mM EDTA) and 199.8 units/mg in experiment [2] (leukocyte LOX 1 unit/ml, 100 mM phosphate buffer pH 7.5, 5 mM EDTA, listed as arachidonoyl-lysoPC). For the same compound, in experiment [2] (leukocyte LOX 1 unit/ml, 100 mM phosphate buffer pH 7.5, 5 mM EDTA, 0.03% Tween 20, 25° C.), the Michaelis constant (Km) is 2.6 µM.

As for `CCCCC/C=C\C/C=C\CCCCCCCC(=O)OCC(O)COP(=O)([O-])OCC[N+](C)(C)C` (centres unmarked) [Linoleoyl-lysoPC, 1-linoleoyl Lysophosphatidylcholine], the “optimal pH range for oxygenation by LOX-1” value in experiment [1] (LOX-1 0.02 units/ml, pH 6-11) is reported as “about 9”. The “LOX activity on various pH conditions” value in experiment [1] (pH 6), in experiment [1] (pH 7), in experiment [1] (pH 7.5), in experiment [1] (pH 8), in experiment [1] (pH 8.5) and in experiment [1] (pH 9) was “◯” throughout. In addition, the “LOX activity on various pH conditions” value in experiment [1] (pH 10) and in experiment [1] (pH 11) was “◯” throughout.
